Source: DBAASP
Converted amounts (≈) assume the structure as drawn.

Assays:
Assay in all cases: ≥ marks a high value that may be exact or a test limit, other limits are often not marked, values filed in µg/mL are converted to µM
[1] = tested on: Candida albicans ATCC 2002
Candida albicans = tested on: Candida albicans
[2] = tested on: Enterobacter cloacae ATCC 13047
Enterobacter cloacae = tested on: Enterobacter cloacae
[3] = tested on: Enterococcus faecalis ATCC 29212
[4] = tested on: Escherichia coli ATCC 25922
Escherichia coli ML-35p = tested on: Escherichia coli ML-35p
Escherichia coli = tested on: Escherichia coli
[5] = tested on: Haemophilus influenzae ATCC 49247
[6] = tested on: Haemophilus influenzae ATCC 49766
Klebsiella aerogenes = tested on: Klebsiella aerogenes
[7] = tested on: Klebsiella pneumoniae ATCC 13883
[8] = tested on: Klebsiella pneumoniae ATCC 700603
[9] = tested on: Pseudomonas aeruginosa PAO1
Pseudomonas aeruginosa = tested on: Pseudomonas aeruginosa
[10] = tested on: Staphylococcus aureus ATCC 25923
[11] = tested on: Staphylococcus aureus ATCC 43300
Staphylococcus aureus = tested on: Staphylococcus aureus
[12] = tested on: Erwinia amylovora PMV 6076
[13] = tested on: Pseudomonas syringae pv. syringae EPS 94
[14] = tested on: Xanthomonas campestris pv. Vesicatoria 2133-2
[15] = tested on: Listeria monocytogenes ATCC 35152
[16] = tested on: Pseudomonas aeruginosa ATCC 27853
Escherichia coli DC2 = tested on: Escherichia coli DC2
Escherichia coli K-12 = tested on: Escherichia coli K-12
[17] = tested on: Staphylococcus aureus UAMS-1
[18] = tested on: Salmonella enterica subsp. enterica serovar Typhi DMST 22842
[19] = tested on: Staphylococcus epidermidis ATCC 12228
Vibrio cholerae non-O139 = tested on: Vibrio cholerae non-O139
Vibrio cholerae non-O1 = tested on: Vibrio cholerae non-O1
[20] = tested on: Cronobacter muytjensii ATCC 51329
[21] = tested on: Cronobacter sakazakii ATCC BAA-894
[22] = tested on: Cronobacter sakazakii DPC 6440
[23] = tested on: Cronobacter sakazakii DSM 4485
[24] = tested on: Escherichia coli NCIMB 11843
[25] = tested on: Klebsiella pneumoniae NCIMB 13218
[26] = tested on: Pseudomonas fluorescens NCIMB 9046
[27] = tested on: Salmonella enterica subsp. enterica serovar Typhimurium LT2
[28] = tested on: Staphylococcus aureus NCTC 8325-4
[29] = tested on: Staphylococcus aureus Newman
[30] = tested on: Staphylococcus aureus RF122
[31] = tested on: Staphylococcus aureus RN4220
[32] = tested on: Staphylococcus aureus SA113

Molecule `CC(C)C[C@H](NC(=O)[C@H](CCCCN)NC(=O)[C@H](CCCCN)NC(=O)[C@H](Cc1ccccc1)NC(=O)[C@H](Cc1ccccc1)NC(=O)[C@@H](N)CCCCN)C(=O)N[C@@H](CCCCN)C(=O)N[C@@H](CCCCN)C(=O)N[C@@H](C)C(=O)N[C@H](C(=O)N[C@@H](CCCCN)C(=O)N[C@@H](CCCCN)C(=O)NCC(=O)N[C@@H](Cc1ccccc1)C(=O)N[C@@H](CCCCN)C(=O)N[C@@H](CCCCN)C(=O)N[C@@H](Cc1ccccc1)C(=O)N[C@@H](C)C(=O)N[C@@H](CCCCN)C(=O)N[C@H](C(=O)O)C(C)C)C(C)C` [KFFKKLKKAVKKGFKKFAKV] has an MIC [1] of at least 83.4 µM, an MIC (Candida albicans) of over 83.4 µM and an MIC [2] of at least 41.7 µM. It also gave an MIC (Enterobacter cloacae) of at least 41.7 µM, an MIC [3] of 10.4 µM (≈ 25 µg/mL) and an MIC [4] of 5.21 µM (≈ 12.5 µg/mL). The MIC (Escherichia coli ML-35p) was 2.61 µM (≈ 6.25 µg/mL), the MIC (Escherichia coli) was 5.21 µM (≈ 12.5 µg/mL) and the MIC [5] was 1.3 µM (≈ 3.13 µg/mL). It also gave an MIC [6] of 2.61 µM (≈ 6.25 µg/mL), an MIC (Klebsiella aerogenes) of at least 41.7 µM and an MIC [7] of 2.61 µM (≈ 6.25 µg/mL). It also gave an MIC [8] of 1.3 µM (≈ 3.13 µg/mL), an MIC [9] of 5.21 µM (≈ 12.5 µg/mL) and an MIC (Pseudomonas aeruginosa) of 5.21 µM (≈ 12.5 µg/mL). For the same molecule, the MIC [10] was 5.21 µM (≈ 12.5 µg/mL), the MIC [11] was 1.3 µM (≈ 3.13 µg/mL) and the MIC (Staphylococcus aureus) was 5.21 µM (≈ 12.5 µg/mL).
With `CC[C@H](C)[C@H](NC(=O)[C@H](CCCCN)NC(=O)[C@H](CCCCN)NC(=O)[C@H](Cc1ccccc1)NC(=O)[C@H](CC(C)C)NC(=O)[C@H](CCCCN)NC(=O)[C@H](CCCCN)NC(=O)[C@H](CC(C)C)NC(=O)[C@H](Cc1ccc(O)cc1)NC(=O)[C@H](CCCCN)NC(=O)[C@H](CC(C)C)NC(=O)[C@@H](NC(=O)[C@H](CCCCN)NC(=O)[C@H](CCCCN)NC(=O)[C@H](Cc1ccccc1)NC(=O)[C@H](CC(C)C)NC(=O)[C@H](CCCCN)NC(=O)[C@@H](N)CCCCN)[C@@H](C)CC)C(=O)N[C@@H](CC(C)C)C(=O)N[C@@H](CCCCN)C(=O)N[C@@H](Cc1ccc(O)cc1)C(=O)N[C@@H](CC(C)C)C(=O)O` [KKLFKKILKYLKKLFKKILKYL] the MIC [12] was 14.1 µM (≈ 40 µg/mL), the MIC [13] was 6.12 µM (≈ 17.3 µg/mL) and the MIC [14] was 1.77 µM (≈ 5 µg/mL).
`CC(C)C[C@H](NC(=O)[C@H](CCCCN)NC(=O)[C@@H](N)CCCCN)C(=O)NCC(=O)N[C@@H](CCC(=O)O)C(=O)N1CCC[C@H]1C(=O)N[C@@H](CO)C(=O)N[C@@H](CS)C(=O)N[C@@H](CC(N)=O)C(=O)N[C@@H](CCCCN)C(=O)N[C@@H](CC(C)C)C(=O)N[C@@H](CCCCN)C(N)=O` [KKLGEPSCNKLK] gave an MIC [4] of 22.3 µM (≈ 30 µg/mL), an MIC [7] of 29.7 µM (≈ 40 µg/mL) and an MIC [15] of 22.3 µM (≈ 30 µg/mL). The MIC [16] was 37.2 µM (≈ 50 µg/mL) and the MIC [10] was 18.6 µM (≈ 25 µg/mL).
`CC[C@H](C)[C@H](NC(=O)[C@H](CCCCN)NC(=O)[C@H](CCC(=O)O)NC(=O)[C@H](CCCCN)NC(=O)[C@H](C)NC(=O)[C@H](CCCCN)NC(=O)[C@H](CCCN=C(N)N)NC(=O)[C@H](Cc1ccccc1)NC(=O)[C@H](Cc1ccccc1)NC(=O)[C@H](CC(=O)O)NC(=O)CNC(=O)[C@H](CC(C)C)NC(=O)[C@@H](N)CC(C)C)C(=O)NCC(=O)N[C@@H](CCCCN)C(=O)N[C@@H](CCC(=O)O)C(=O)N[C@@H](Cc1ccccc1)C(=O)N[C@@H](CCCCN)C(=O)N[C@@H](CCCN=C(N)N)C(=O)N[C@H](C(=O)N[C@H](C(=O)N[C@@H](CCC(N)=O)C(=O)N[C@@H](CCCN=C(N)N)C(=O)O)C(C)C)[C@@H](C)CC` [LLGDFFRKAKEKIGKEFKRIVQR] showed an MIC (Escherichia coli DC2) of 9 µM (≈ 25.3 µg/mL), an MIC (Escherichia coli K-12) of at least 80 µM and an MIC [17] of at least 160 µM. The MIC (Staphylococcus aureus) was over 24 µM.
`CC(C)[C@H](NC(=O)CNC(=O)[C@@H](N)CC(N)=O)C(=O)N[C@@H](CCC(N)=O)C(=O)N1CCC[C@H]1C(=O)N[C@@H](Cc1c[nH]c2ccccc12)C(=O)N[C@@H](Cc1ccc(O)cc1)C(=O)N[C@@H](CCCCN)C(=O)N[C@@H](Cc1c[nH]c2ccccc12)C(=O)N[C@@H](Cc1c[nH]c2ccccc12)C(=O)N[C@@H](CCCCN)C(=O)N[C@@H](Cc1c[nH]c2ccccc12)C(=O)N[C@@H](Cc1c[nH]c2ccccc12)C(=O)N[C@@H](CCCCN)C(=O)N[C@@H](CCCCN)C(=O)N[C@@H](Cc1c[nH]c2ccccc12)C(=O)N[C@@H](Cc1c[nH]c2ccccc12)C(N)=O` [NGVQPWYKWWKWWKKWW] showed an MIC [4] of over 36.5 µM, an MIC [18] of at least 36.5 µM and an MIC [10] of over 36.5 µM. It also gave an MIC [19] of 36.5 µM (≈ 91 µg/mL), an MIC (Vibrio cholerae non-O139) of at least 36.5 µM and an MIC (Vibrio cholerae non-O1) of at least 36.5 µM.
Work on `CC[C@H](C)[C@H](NC(=O)[C@@H](N)C(C)C)C(=O)N[C@@H](CC(N)=O)C(=O)N[C@@H](CCC(=O)O)C(=O)N[C@@H](CC(N)=O)C(=O)N[C@@H](CC(C)C)C(=O)N[C@@H](CC(C)C)C(=O)N[C@@H](CCCN=C(N)N)C(=O)O` [VINENLLR] yielded an MIC [20] of at least 1250 µM, an MIC [21] of at least 1250 µM and an MIC [22] of at least 1250 µM. The MIC [23] was at least 1250 µM, the MIC [24] was at least 2500 µM and the MIC [25] was at least 2500 µM. The MIC [26] was at least 2500 µM, the MIC [27] was at least 2500 µM and the MIC [28] was at least 625 µM. For the same molecule, the MIC [29] was at least 1250 µM, the MIC [30] was at least 1250 µM and the MIC [31] was at least 1250 µM. The MIC [32] was at least 1250 µM.
